From patent publication US20240117005A1, “NOVEL BICYCLIC PEPTIDES” (THE COUNCIL OF THE QUEENSLAND INSTITUTE OF MEDICAL RESEARCH, priority 2021, published 2024)

Columns and labels:
[1] = test system: PDL2; assay: Immunofluorescence microscopy of nuclear PDL2; format: cell-based, human; details: MDA-MB-231 breast cancer cell line
Protocol: The cells were fixed and immunofluorescence microscopy was performed. Digital images were analysed using ImageJ software (ImageJ, NIH, Bethesda, MD, USA) to determine the mean nuclear fluorescent intensity (TNFI) in cells measured using ImageJ to select the nucleus minus background (n=>500 cells/sample).

[2] = test system: 4T1 cells; assay: WST-1 cell proliferation assay, 4T1; format: cell-based; details: 4T1, WST-1, 72 hours
Protocol: (A) CT26, 4T1 or MDA-MB-231 Cells were treated with inhibitors for 72 hours. Following inhibition, media was removed and replaced with WST-1 cell proliferation reagent. Absorbance was recorded at 450 nm after 1 hour. Data represent a single independent experiment performed in triplicate. Results are graphed as mean +/− standard error (SE). B) MDA-MB-231 or CT26 cancer cells were treated with vehicle control, DL-2-Batch 1 (original stock), DL-2-Batch 2 (current stock), DL-2-TBAB or linear PDL1. Cells were permeabilised and were probed with the DUOLINK ligation assay. Cover slips were mounted on glass microscope slides with ProLong nucblue glass Antifade reagent (Life Technologies). PDL1Ac and IMPα1 DUOLINK Digital images were analysed using ImageJ software (ImageJ, NIH, Bethesda, MD, USA) and graphs represent the mean DOT Fluorescent Intensity in the nucleus or the cytoplasm compartments with significant differences calculated as per one-way ANOVA comparison. (C) MDA-MB-231 or CT26 cancer cells were treated with vehicle control, DL-2-Batch 1 (Original stock), DL-2-Batch 2 (current stock), DL-2-TBAB or linear PDL1. Cells were permeabilised and were probed with the DUOLINK ligation assay. Cover slips were mounted on glass microscope slides with ProLong nucblue glass Antifade reagent (Life Technologies). PDL1-unmodified and IMPα1 DUOLINK digital images were analysed using ImageJ software (ImageJ, NIH, Bethesda, MD, USA) and graphs represent the mean DOT fluorescent intensity in the nucleus or the cytoplasm compartments with significant differences calculated as per one-way ANOVA comparison.
4T1, CT26 or MDA-MB-231 cancer cell lines were treated with DL-2 or DL-2-D bicyclic inhibitors for 72 hours. Following inhibition, media was removed and replaced with WST-1 cell proliferation reagent. Absorbance was recorded at 450 nm after 1 hour. Data represent a single independent experiment performed in triplicate; results are graphed as mean +/− standard error (SE).

[3] = test system: PKCθ, LSD1, p65, C-Rel, SET, pSTAT3; assay: Determination of nuclear-associated proteins; format: cell-based, human; details: MDA-MB-231, 10 μM
Protocol: MDA-MB-231 cells were treated with DL-2 with concentration of 10 μM. MDA-MB-231 cells were treated with DL-2 or control and were permeabilised before being probed with the antibodies specific for PKCθ, LSD1, p65, C-Rel, SET, pSTAT3. Cover slips were mounted on glass microscope slides with ProLong nucblue glass Antifade reagent (Life Technologies). Digital images were analysed using ImageJ software (ImageJ, NIH, Bethesda, MD, USA) and graphs represent the mean fluorescence intensity in the nucleus or the cytoplasm compartments with significant differences calculated as per Mann-Whitney pairwise comparison.

[4] = molecular target: T1, PDL1-PTM1 and IMPα1 (Homo sapiens, UniProt P52292); assay: Importin-α pathway screening assay (PCC co-localisation); format: cell-based
T1 construct: endogenous in cells; host or cells: MDA-MB-231
Protocol: MDA-MB-231 cells were treated with DL-2 for 4 to 96 hours or control peptide scramble and were permeabilized probed a mouse anti-IMPα1, rabbit anti-PDL1 and visualized with a donkey anti-rabbit secondary antibody conjugated to Alexa Fluor 647 or a donkey anti-mouse secondary antibody conjugated to Alexa Fluor 568. Cover slips were mounted on glass microscope slides with Prolong nucleus glass Antifade reagent (Life Technologies). PDL1 and IMPα1 digital images were analyzed using ImageJ software (ImageJ, NIH, Bethesda, MD, USA) to determine the mean fluorescent intensity (mean FI). Graphs represent the mean FI of IMPα1. Graphs also depict the PCC of PDL1/IMPα1 using ImageJ software with automatic thresholding and manual selection of regions of interest (ROIs) specific for cell nuclei to calculate the Pearson's co-efficient correlation (PCC) for each pair of antibodies. PCC values range from: −1=inverse of co-localization.

CCCCCCCCCCCCCC(=O)NC(C)C(=O)NC1CSCc2cc3cc(c2)CSC[C@H](NC(=O)[C@H](Cc2ccccc2)NC(=O)[C@H](C(C)CC)NC(=O)[C@H](Cc2ccccc2)NC(=O)[C@H]([C@@H](C)O)NC(=O)C(CC(C)C)NC1=O)C(=O)N[C@@H](CCCNC(C)=N)C(=O)N[C@@H](CC(C)C)C(=O)N[C@@H](CCCNC(=N)N)C(=O)N[C@@H](CCCCN)C(=O)NCC(=O)N[C@@H](CCCNC(=N)N)C(=O)NC(C(=O)N[C@@H](CCSC)C(=O)NC(CCSC)C(=O)N[C@@H](CC(=O)O)C(=O)NC(C(=O)N[C@@H](CCCCN)C(=O)NC(CCCCN)C(=O)O)C(C)C)CSC3 (mixture of isomers) [DL-2] was tested, and the “nuclear expression of PDL2” value [1] was “no effect at all”, the inhibition of proliferation [2] was “significantly inhibit the proliferation” and the inhibition of proliferation ([2]; listed as DL-2-TBMB) was “able to effectively inhibit the proliferation”. The “off-target effects on nuclear proteins (PKCθ, LSD1, p65, C-Rel, SET, pSTAT3)” value [3] was “No off-target effects were observed”, the “nuclear expression of IMPα1” value ([4]; MDA-MB-231) was “No significant effect” and the “PCC or degree of co-localization of PDL1-PTM1 and IMPα1” value ([4]; MDA-MB-231, up to 96 hours) was “significantly impair”.
